The structures appear in SMILES notation.

By IC50 is commonly meant the concentration needed to halve the response being measured. As a reminder, the EC50 is the midpoint of the concentration-response curve.

The target of experiment [1] is T1, DDR2 (Homo sapiens, UniProt Q16832).
T1 construct: The enzymes were purchased as a catalytic domain GST Tag DDR1(#PR6913A) and DDR2 (#PR7167A); purchased ThermoFisher PR7167A
T1 sequence (Q16832 563-849 limits assumed): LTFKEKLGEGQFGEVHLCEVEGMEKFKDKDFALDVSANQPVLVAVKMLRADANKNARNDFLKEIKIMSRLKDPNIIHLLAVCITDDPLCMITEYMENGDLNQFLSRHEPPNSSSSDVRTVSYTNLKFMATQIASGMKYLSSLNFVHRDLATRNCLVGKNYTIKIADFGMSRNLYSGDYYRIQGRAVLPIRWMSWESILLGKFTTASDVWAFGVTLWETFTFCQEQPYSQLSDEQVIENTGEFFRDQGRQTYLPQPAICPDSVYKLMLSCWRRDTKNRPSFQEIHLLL
Kind of experiment: LanthaScreen Eu-Kinase Binding Assay (TR-FRET tracer displacement), DDR2. The note with it: catalytic domain GST Tag DDR2; Kinase Tracer 178. In a few lines: (§1)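 TR-FRET displacement of Alexa Fluor Kinase Tracer 178 from GST-tagged catalytic-domain DDR1 or DDR2, detected with Eu-labelled anti-GST antibody under kit-recommended conditions. The acceptor/donor emission ratio (665/615 nm) was plotted against inhibitor concentration and fitted to a sigmoid dose-response curve.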

In experiment [2] the target is T2, DDR1 (Mus musculus, UniProt Q03146).
T2 construct: expressed in transfected cells; host or cells: HEK293T
T2 sequence (Q03146 20-911): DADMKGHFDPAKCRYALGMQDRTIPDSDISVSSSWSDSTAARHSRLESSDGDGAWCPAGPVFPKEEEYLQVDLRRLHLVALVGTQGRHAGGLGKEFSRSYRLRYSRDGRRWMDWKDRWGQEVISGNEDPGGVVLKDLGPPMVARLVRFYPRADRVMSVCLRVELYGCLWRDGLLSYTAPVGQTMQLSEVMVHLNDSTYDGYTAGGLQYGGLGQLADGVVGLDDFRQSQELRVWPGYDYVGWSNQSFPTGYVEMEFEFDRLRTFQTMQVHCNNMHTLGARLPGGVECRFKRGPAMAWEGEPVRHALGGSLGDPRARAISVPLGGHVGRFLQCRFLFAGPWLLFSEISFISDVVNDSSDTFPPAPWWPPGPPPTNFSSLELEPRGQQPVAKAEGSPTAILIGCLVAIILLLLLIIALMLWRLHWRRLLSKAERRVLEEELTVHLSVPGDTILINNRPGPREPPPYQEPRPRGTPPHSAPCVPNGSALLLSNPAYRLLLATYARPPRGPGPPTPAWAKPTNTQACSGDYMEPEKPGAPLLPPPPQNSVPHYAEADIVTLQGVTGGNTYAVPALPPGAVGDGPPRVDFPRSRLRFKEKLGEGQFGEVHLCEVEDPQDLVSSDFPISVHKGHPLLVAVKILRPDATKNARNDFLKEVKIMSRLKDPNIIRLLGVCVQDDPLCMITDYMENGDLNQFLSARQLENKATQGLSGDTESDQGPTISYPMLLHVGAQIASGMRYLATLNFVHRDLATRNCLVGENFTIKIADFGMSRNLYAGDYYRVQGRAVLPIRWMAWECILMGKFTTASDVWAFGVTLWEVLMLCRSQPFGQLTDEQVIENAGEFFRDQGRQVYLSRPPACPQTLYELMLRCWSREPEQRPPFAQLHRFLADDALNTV
Kind of experiment: Cellular assay: inhibition of Collagen I-induced DDR1 autophosphorylation in HEK293T cells transiently transfected with DDR1 plasmid (Western blot). It counts as cell-based, human. The note with it: pcDNA3.1 DDR1 WT mouse plasmid, compound 1 h, then 10 µg/mL Collagen I 1 h, P-DDR1 (Y513), read-out: pDDR1 EC50. On the technique in general: In western blotting, separated proteins are transferred to a membrane and probed.

Experiment [3] concerns the target T3, DDR1 (Homo sapiens, UniProt Q08345).
T3 construct: The enzymes were purchased as a catalytic domain GST Tag DDR1(#PR6913A); purchased ThermoFisher PR6913A
Kind of experiment: LanthaScreen Eu-Kinase Binding Assay (TR-FRET tracer displacement), DDR1. The note with it: catalytic domain GST Tag DDR1; Kinase Tracer 178. Summed up: as §1
A general note: TR-FRET usually uses a lanthanide donor and a delayed reading to cut background.

T3 sequence (Q08345 610-905 limits assumed): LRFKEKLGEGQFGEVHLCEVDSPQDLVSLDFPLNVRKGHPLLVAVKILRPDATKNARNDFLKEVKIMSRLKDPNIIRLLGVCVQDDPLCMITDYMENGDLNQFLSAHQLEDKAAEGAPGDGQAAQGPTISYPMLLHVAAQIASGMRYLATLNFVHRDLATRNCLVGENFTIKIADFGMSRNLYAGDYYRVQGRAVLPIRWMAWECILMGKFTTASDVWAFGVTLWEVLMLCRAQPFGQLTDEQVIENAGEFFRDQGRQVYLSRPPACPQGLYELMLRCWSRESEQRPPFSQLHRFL

Consider `Cc1cc(=O)n2c(-c3ccccc3)c(-c3ccnc(Nc4cccc(N5CCN(CCO)CC5)c4)n3)sc2n1` [Compound 72, 2-(2-{3-[4-(2-Hydroxy-ethyl)-piperazin-1-yl]-phenylamino}-pyrimidin-4-yl)-7-methyl-3-phenyl-thiazolo[3,2-a]pyrimidin-5-one], for which the IC50 in experiment [1] amounted to 26.9 nM; in experiment [3] it was 9.06 nM. Moreover, the EC50 in experiment [2] stood at 59 nM.

Source of the values: patent EP4032896A1, “THIAZOLOPYRIMIDONES AS INHIBITORS OF DDR1/2 AND THERAPEUTIC USES THEREOF” (Fundación del Sector Público Estatal Centro Nacional de …, priority 2021, dated 2022).
